Measurements as given in patent US8916551B2, “Heterocyclic compound and use thereof” (Takeda Pharmaceutical Company Limited, priority 2010, dated 2014).

Target: T1, AMPA receptor (human GluR1 flip/stargazin expressed in CHO-K1 cells) (Homo sapiens, UniProt P42261)
T1 construct: expressed in transfected cells; host or cells: CHO-K1
Assay: AMPA receptor function enhancing activity using calcium influx as index
Format: cell-based
Details: test compound 30 μM with 3 mM glutamic acid, change in fluorescence level in 3 min, 100% = 3 mM glutamic acid + 300 μM cyclothiazide, 0% = 3 mM glutamic acid only
Text: Human GluR1 flip cDNA was amplified by PCR using forward primer […] (SEQ ID NO: 1) and reverse primer […] (SEQ ID NO: 2) artificially synthesized using human brain-derived cDNA (BD Bio science) as a template. The amplified product was digested with restriction enzymes EcoRI, NotI (TAKARA SHUZO CO. LTD.), and incorporated into the same site of pcDNA3.1(+) (Invitrogen) to construct pcDNA3.1(+)/human GluR1 flip gene. Human stargazin cDNA was amplified by PCR using forward primer […] (SEQ ID NO: 3) and reverse primer […] (SEQ ID NO: 4) artificially synthesized using human hippocampus cDNA as a template. The amplified product was digested with restriction enzymes XhoI, BamHI (TAKARA SHUZO CO. LTD.), and incorporated into the same site of pcDNA3.1(−) (Invitrogen) to construct pcDNA3.1 Zeo(−)/human stargazin gene.
CHO-K1 cells passaged in a culture medium (Ham's F12 medium (Invitrogen) added with 10% inactivated fetal bovine serum (Morgate) and penicillin, streptomycin (Invitrogen)) were detached with 0.05% trypsin, 0.53 mM EDTA (Invitrogen) diluted with D-PBS(−). The detached cells were suspended in a culture medium, and recovered by a centrifugation operation at 1,000 rpm. The recovered cells were suspended again in D-PBS(−), and added to a 0.4 cm electroporation cuvette (BioRad). pcDNA3.1(+)/human GluR1 flip gene (5 μg) and pcDNA3.1 Zeo(−)/human stargazin gene (15 μg) were added, and the mixture was introduced into CHO-K1 cells using Gene Pulser II (BioRad) under the conditions of 950 μFd, […]. The introduced cells were cultured overnight in a culture medium and, the next day, plated in a 96 well plate at 250 cells/well using a selection medium (culture medium added with Zeocin (Invitrogen) to 250 μg/mL). Clones showing drug resistance were selected, and GluR1 flip/stargazin expressing clones were selected by an assay method using calcium influx as an index as shown below.
CHO-K1/GluR1 flip/stargazin expressing cells were plated on a 96 well black transparent bottom plate (Costar) at 2×10^4 cells/well, and cultured in a 37° C., CO2 incubator (SANYO Electric Co., Ltd.) for 2 days. The medium in the cell plate was removed, and assay buffer A (D-MEM (Invitrogen), 0.1% BSA (Serogical Protein), 20 mM HEPES (Invitrogen)) was added at 50 μL/well. A calcium indicator (Calcium 4 Assay Kit, Invitrogen) added with 2.5 mM probenecid (Invitrogen) was added at 50 μL/well and the well was left standing in 37° C., CO2 incubator for 1 hr. The cell plate was set in CellLux (PerkinElmer), a mixture (50 μL) of 9 mM glutamic acid diluted with assay buffer B (HBSS (Invitrogen), 0.1% BSA, 20 mM HEPES) (final concentration 3 mM) and a test compound (test compound concentration 30 μM) was added, and the amount of change in fluorescence level in 3 min was measured. In the definition here, the amount of change in fluorescence level of well added with glutamic acid at final concentration 3 mM and 300 μM cyclothiazide (TOCRIS) is 100%, the amount of change in fluorescence level of well added only with glutamic acid at final concentration 3 mM is 0%, and the compound activity was calculated according to the following formula. activity(%)=(X−C)/(T−C)×100 T: amount of change in fluorescence level of well added with glutamic acid at final concentration 3 mM and 300 μM cyclothiazide C: amount of change in fluorescence level of well added only with glutamic acid at final concentration 3 mM X: amount of change in fluorescence level of well added with test compound

T1 sequence (P42261 19-906 isoform P42261-2 limits assumed): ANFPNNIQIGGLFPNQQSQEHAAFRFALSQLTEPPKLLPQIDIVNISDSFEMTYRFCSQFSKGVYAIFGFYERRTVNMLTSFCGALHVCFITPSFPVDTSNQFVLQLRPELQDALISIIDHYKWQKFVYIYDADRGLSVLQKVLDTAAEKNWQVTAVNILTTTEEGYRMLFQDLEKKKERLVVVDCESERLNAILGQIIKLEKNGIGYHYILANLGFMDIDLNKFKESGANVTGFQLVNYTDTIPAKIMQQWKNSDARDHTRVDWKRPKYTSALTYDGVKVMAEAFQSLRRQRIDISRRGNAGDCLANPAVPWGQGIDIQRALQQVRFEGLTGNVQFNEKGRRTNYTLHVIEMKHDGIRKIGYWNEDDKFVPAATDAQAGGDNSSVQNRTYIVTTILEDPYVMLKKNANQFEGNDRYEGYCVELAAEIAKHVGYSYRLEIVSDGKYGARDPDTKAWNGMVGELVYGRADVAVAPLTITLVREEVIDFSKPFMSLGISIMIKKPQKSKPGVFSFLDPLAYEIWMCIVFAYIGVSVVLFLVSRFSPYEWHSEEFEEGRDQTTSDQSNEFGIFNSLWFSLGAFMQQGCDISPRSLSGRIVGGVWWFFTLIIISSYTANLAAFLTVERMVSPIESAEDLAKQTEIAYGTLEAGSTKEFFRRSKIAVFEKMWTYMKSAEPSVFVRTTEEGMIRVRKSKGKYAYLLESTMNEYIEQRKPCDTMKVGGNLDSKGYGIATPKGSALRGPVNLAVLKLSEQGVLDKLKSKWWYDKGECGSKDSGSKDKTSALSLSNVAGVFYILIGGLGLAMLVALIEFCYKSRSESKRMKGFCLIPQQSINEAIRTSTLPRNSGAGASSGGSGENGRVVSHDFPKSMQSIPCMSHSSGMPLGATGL
T1 sequence (Q9Y698 whole entry partner): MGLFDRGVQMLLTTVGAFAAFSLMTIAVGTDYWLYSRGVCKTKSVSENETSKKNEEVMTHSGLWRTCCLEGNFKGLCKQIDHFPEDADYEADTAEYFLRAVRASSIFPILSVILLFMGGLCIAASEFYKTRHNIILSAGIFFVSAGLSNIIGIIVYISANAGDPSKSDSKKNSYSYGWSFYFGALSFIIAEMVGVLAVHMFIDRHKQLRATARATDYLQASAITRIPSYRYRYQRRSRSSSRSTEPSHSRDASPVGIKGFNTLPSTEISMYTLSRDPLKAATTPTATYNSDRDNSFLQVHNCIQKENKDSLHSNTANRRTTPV

| Compound | activity (%) |
| --- | --- |
| O=S1(=O)CCN2CCCC(c3ccc(Oc4ccc(Br)c(C(F)(F)F)c4)cc3)C2=N1 (stereo not shown) [Example 142, 9-{4-[4-bromo-3-(trifluoromethyl)phenoxy]phenyl}-3,4,6,7,8,9-hexahydropyrido[2,1-c][1,2,4]thiadiazine 2,2-dioxide] | 70% |
| Cc1cc(F)ccc1Oc1ccc(C2CCCN3CCS(=O)(=O)N=C23)cc1 (stereo not shown) [Example 144, 9-[4-(4-fluoro-2-methylphenoxy)phenyl]-3,4,6,7,8,9-hexahydropyrido[2,1-c][1,2,4]thiadiazine 2,2-dioxide] | 76% |
| Cc1cc(F)ccc1Oc1ccc(C2CCCN3CCS(=O)(=O)N=C23)cc1 (stereo not shown) [Example 145, 9-[4-(4-fluoro-2-methylphenoxy)phenyl]-3,4,6,7,8,9-hexahydropyrido[2,1-c][1,2,4]thiadiazine 2,2-dioxide] | 84% |
| O=S1(=O)CCN2CCC[C@@H](c3ccc(Oc4ccc(Cl)cc4)cc3)C2=N1 [Example 149, (9S)-9-[4-(4-chlorophenoxy)phenyl]-3,4,6,7,8,9-hexahydropyrido[2,1-c][1,2,4]thiadiazine 2,2-dioxide] | 77% |
| O=S1(=O)CCN2CCCC(c3ccc(Oc4ccc(Cl)c(Cl)c4)cc3)C2=N1 (stereo not shown) [Example 152, 9-[4-(3,4-dichlorophenoxy)phenyl]-3,4,6,7,8,9-hexahydropyrido[2,1-c][1,2,4]thiadiazine 2,2-dioxide] | 80% |
| COc1cc(Oc2ccc(C3=CC=CN4CCS(=O)(=O)N=C34)cc2)ccc1Cl [Example 154, 9-[4-(4-chloro-3-methoxyphenoxy)phenyl]-3,4-dihydropyrido[2,1-c][1,2,4]thiadiazine 2,2-dioxide] | 75% |
| COc1cc(Oc2ccc(C3CCCN4CCS(=O)(=O)N=C34)cc2)ccc1Cl (stereo not shown) [Example 155, 9-[4-(4-chloro-3-methoxyphenoxy)phenyl]-3,4,6,7,8,9-hexahydropyrido[2,1-c][1,2,4]thiadiazine 2,2-dioxide] | 63% |
| CC(F)(F)c1cccc(Oc2ccc(C3=CC=CN4CCS(=O)(=O)N=C34)cc2)c1 [Example 156, 9-{4-[3-(1,1-difluoroethyl)phenoxy]phenyl}-3,4-dihydropyrido[2,1-c][1,2,4]thiadiazine 2,2-dioxide] | 90% |
| CC(F)(F)c1cccc(Oc2ccc(C3CCCN4CCS(=O)(=O)N=C34)cc2)c1 (stereo not shown) [Example 158, 9-{4-[3-(1,1-difluoroethyl)phenoxy]phenyl}-3,4,6,7,8,9-hexahydropyrido[2,1-c][1,2,4]thiadiazine 2,2-dioxide] | 76% |
| CC(F)(F)c1cccc(Oc2ccc(C3CCCN4CCS(=O)(=O)N=C34)cc2)c1 (stereo not shown) [Example 159, 9-{4-[3-(1,1-difluoroethyl)phenoxy]phenyl}-3,4,6,7,8,9-hexahydropyrido[2,1-c][1,2,4]thiadiazine 2,2-dioxide] | 90% |
| O=S1(=O)CCN2CCC[C@@H](c3ccc(Oc4cc(C(F)(F)F)ccc4Cl)cc3)C2=N1 [Example 160, (9S)-9-{4-[2-chloro-5-(trifluoromethyl)phenoxy]phenyl}-3,4,6,7,8,9-hexahydropyrido[2,1-c][1,2,4]thiadiazine 2,2-dioxide] | 78% |
| CCc1ccc(Oc2ccc(C3CCCN4CCS(=O)(=O)N=C34)cc2)cc1 (stereo not shown) [Example 161, 9-[4-(4-ethylphenoxy)phenyl]-3,4,6,7,8,9-hexahydropyrido[2,1-c][1,2,4]thiadiazine 2,2-dioxide] | 57% |
| O=S1(=O)CCN2C=CC=C(c3ccc(C(F)(F)c4ccccc4)cc3)C2=N1 [Example 162, 9-{4-[difluoro(phenyl)methyl]phenyl}-3,4-dihydropyrido[2,1-c][1,2,4]thiadiazine 2,2-dioxide] | 56% |
| O=S1(=O)CCN2CCCC(c3ccc(C(F)(F)c4ccccc4)cc3)C2=N1 (stereo not shown) [Example 163, 9-{4-[difluoro(phenyl)methyl]phenyl}-3,4,6,7,8,9-hexahydropyrido[2,1-c][1,2,4]thiadiazine 2,2-dioxide] | 74% |
| COc1cc(Oc2ccc(C3CC(C)CN4CCS(=O)(=O)N=C34)cc2)ccc1F (stereo not shown) [Example 164, 9-[4-(4-fluoro-3-methoxyphenoxy)phenyl]-7-methyl-3,4,6,7,8,9-hexahydropyrido[2,1-c][1,2,4]thiadiazine 2,2-dioxide] | 69% |
| CC1CC(c2ccc(Oc3cccc(C(C)(F)F)c3)cc2)C2=NS(=O)(=O)CCN2C1 (stereo not shown) [Example 171, 9-{4-[3-(1,1-difluoroethyl)phenoxy]phenyl}-7-methyl-3,4,6,7,8,9-hexahydropyrido[2,1-c][1,2,4]thiadiazine 2,2-dioxide] | 87% |
| CC(F)(F)c1ccc(C2CCCN3CCS(=O)(=O)N=C23)cc1 (stereo not shown) [Example 174, 9-[4-(1,1-difluoroethyl)phenyl]-3,4,6,7,8,9-hexahydropyrido[2,1-c][1,2,4]thiadiazine 2,2-dioxide] | 79% |
| O=S1(=O)CCN2CCCC(c3ccc(C(F)(F)F)cc3)C2=N1 (stereo not shown) [Example 177, 9-[4-(trifluoromethyl)phenyl]-3,4,6,7,8,9-hexahydropyrido[2,1-c][1,2,4]thiadiazine 2,2-dioxide] | 69% |
| O=S1(=O)CCN2CCCC(c3ccc(OC(F)(F)F)cc3)C2=N1 (stereo not shown) [Example 179, 9-[4-(trifluoromethoxy)phenyl]-3,4,6,7,8,9-hexahydropyrido[2,1-c][1,2,4]thiadiazine 2,2-dioxide] | 69% |

Same assay, conditions: test compound 30 μM with glutamic acid final 3 mM, change in fluorescence in 3 min, 100% = 3 mM glutamic acid + 300 μM cyclothiazide, 0% = 3 mM glutamic acid only

| Compound | activity (%) |
| --- | --- |
| CCc1cccc(Oc2ccc(C3CCCN4CCS(=O)(=O)N=C34)cc2)c1 (stereo not shown) [Example 132, 9-[4-(3-ethylphenoxy)phenyl]-3,4,6,7,8,9-hexahydropyrido[2,1-c][1,2,4]thiadiazine 2,2-dioxide] | 75% |
| Cc1ccc(Oc2ccc(C3=CC=CN4CCS(=O)(=O)N=C34)cc2)cc1C [Example 134, 9-[4-(3,4-dimethylphenoxy)phenyl]-3,4-dihydropyrido[2,1-c][1,2,4]thiadiazine 2,2-dioxide] | 77% |
| Cc1ccc(Oc2ccc(C3CCCN4CCS(=O)(=O)N=C34)cc2)cc1C (stereo not shown) [Example 135, 9-[4-(3,4-dimethylphenoxy)phenyl]-3,4,6,7,8,9-hexahydropyrido[2,1-c][1,2,4]thiadiazine 2,2-dioxide] | 59% |
| Cc1ccc(C(F)(F)c2ccc(C3=CC=CN4CCS(=O)(=O)N=C34)cc2)cc1 [Example 136, 9-{4-[difluoro(4-methylphenyl)methyl]phenyl}-3,4-dihydropyrido[2,1-c][1,2,4]thiadiazine 2,2-dioxide] | 77% |
| Cc1ccc(C(F)(F)c2ccc(C3CCCN4CCS(=O)(=O)N=C34)cc2)cc1 (stereo not shown) [Example 138, 9-{4-[difluoro(4-methylphenyl)methyl]phenyl}-3,4,6,7,8,9-hexahydropyrido[2,1-c][1,2,4]thiadiazine 2,2-dioxide] | 71% |
| O=S1(=O)CCN2CCCC(c3ccc(Oc4ccc5c(c4)OCC5)cc3)C2=N1 (stereo not shown) [Example 141, 9-[4-(2,3-dihydro-1-benzofuran-6-yloxy)phenyl]-3,4,6,7,8,9-hexahydropyrido[2,1-c][1,2,4]thiadiazine 2,2-dioxide] | 80% |
